Laboratory results published in ChEMBL document CHEMBL5154826, “Discovery of the Clinical Candidate MAK683: An EED-Directed, Allosteric, and Selective PRC2 Inhibitor for the Treatment of Advanced Malignancies” (J Med Chem, 2022).
≈ marks a conversion by molar mass, not a printed value.

What was measured:
[1] = Drug metabolism in rat liver hepatocytes assessed as CYP3A4 M3 metabolite formation at 1 uM preincuabted for 5 mins followed by NADPH addition and measured after 20 mins by LC-MS/MS analysis; assay type: ADME, cell-based, Hepatocyte
KARPAS-422 = experiment: Antiproliferative activity against human KARPAS-422 cells expressing EZH2 mutant assessed as inhibition of cell growth after 14 days by beckman coulter counting method; assay type: functional; conditions: Homo sapiens, KARPAS-422, 336 h; time 14 day
[2] = biological target: 3',5'-cyclic-AMP phosphodiesterase 4D (Homo sapiens, UniProt Q08499); experiment: Inhibition of human Phosphodiesterase 4D
Chain of 3',5'-cyclic-AMP phosphodiesterase 4D (Q08499 whole entry): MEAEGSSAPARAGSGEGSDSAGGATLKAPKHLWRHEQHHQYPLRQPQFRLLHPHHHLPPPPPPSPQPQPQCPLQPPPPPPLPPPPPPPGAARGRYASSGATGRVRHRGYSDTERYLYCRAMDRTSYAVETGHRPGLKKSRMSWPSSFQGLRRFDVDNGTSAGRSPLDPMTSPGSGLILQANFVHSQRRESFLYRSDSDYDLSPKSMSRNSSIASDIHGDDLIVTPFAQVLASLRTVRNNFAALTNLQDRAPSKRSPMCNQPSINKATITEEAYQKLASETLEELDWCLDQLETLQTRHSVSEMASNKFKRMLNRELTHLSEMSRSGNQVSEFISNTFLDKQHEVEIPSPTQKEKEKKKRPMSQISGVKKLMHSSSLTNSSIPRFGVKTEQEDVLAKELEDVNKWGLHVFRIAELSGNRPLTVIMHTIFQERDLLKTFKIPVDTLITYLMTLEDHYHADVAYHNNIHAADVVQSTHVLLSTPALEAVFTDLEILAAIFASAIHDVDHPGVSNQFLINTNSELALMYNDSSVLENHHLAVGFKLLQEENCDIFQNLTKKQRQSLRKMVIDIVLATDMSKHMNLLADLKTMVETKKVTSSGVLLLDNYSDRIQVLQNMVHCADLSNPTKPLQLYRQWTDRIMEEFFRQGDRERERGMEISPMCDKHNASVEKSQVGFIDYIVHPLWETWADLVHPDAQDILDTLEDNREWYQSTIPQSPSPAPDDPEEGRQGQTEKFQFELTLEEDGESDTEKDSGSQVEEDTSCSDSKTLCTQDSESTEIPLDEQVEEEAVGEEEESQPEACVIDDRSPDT

[3] = Drug metabolism in rat liver microsomes assessed as CYP3A4 mediated M3 metabolite formation at 1 uM preincuabted for 5 mins followed by NADPH addition and measured after 20 mins by LC-MS/MS analysis; assay type: ADME, Microsome; conditions: 25 min
[4] = biological target: T1, Alpha-2A adrenergic receptor (Homo sapiens, UniProt P08913); experiment: Antagonist activity against alpha2a adrenergic receptor (unknown origin); assay type: functional
T1 sequence (P08913 whole entry): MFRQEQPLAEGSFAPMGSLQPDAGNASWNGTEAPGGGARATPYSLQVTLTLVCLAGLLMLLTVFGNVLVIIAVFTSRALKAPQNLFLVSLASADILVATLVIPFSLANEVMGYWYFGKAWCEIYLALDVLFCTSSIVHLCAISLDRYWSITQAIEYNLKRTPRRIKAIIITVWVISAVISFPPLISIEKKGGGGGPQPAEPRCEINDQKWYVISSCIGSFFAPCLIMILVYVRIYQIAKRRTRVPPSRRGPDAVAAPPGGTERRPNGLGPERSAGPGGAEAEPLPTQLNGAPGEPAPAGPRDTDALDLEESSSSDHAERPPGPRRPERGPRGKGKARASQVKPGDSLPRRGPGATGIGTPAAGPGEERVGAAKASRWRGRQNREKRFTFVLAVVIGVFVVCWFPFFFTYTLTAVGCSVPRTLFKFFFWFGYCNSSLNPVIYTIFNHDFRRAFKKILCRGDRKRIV

[5] = Efflux ratio of apparent permeability across basolateral to apical side over apical to basolateral side in human Caco-2 cells at 10 uM incubated for 2 hrs by LC/MS/MS analysis; assay type: ADME, cell-based
cells = conditions: Homo sapiens, G-401, 48 h
Description: Inhibition of PRC2 in human G-401 cells assessed as H3K27 methylation status incubated for 48 hrs by ELISA method

[6] = Terminal half life in Sprague-Dawley rat at 2 mg/kg, po; assay type: ADME, organism-based; conditions: in vivo, read-out: beta t1/2 (converted)
Cytochrome P450 2C9 = Cytochrome P450 2C9 (Homo sapiens, UniProt P11712); experiment: Inhibition of CYP2C9 in human liver microsomes using diclofenac as substrate incubated for 10 mins in presence of NADPH by LC-MS/MS analysis; assay type: ADME, Microsome
Chain of Cytochrome P450 2C9 (P11712 whole entry): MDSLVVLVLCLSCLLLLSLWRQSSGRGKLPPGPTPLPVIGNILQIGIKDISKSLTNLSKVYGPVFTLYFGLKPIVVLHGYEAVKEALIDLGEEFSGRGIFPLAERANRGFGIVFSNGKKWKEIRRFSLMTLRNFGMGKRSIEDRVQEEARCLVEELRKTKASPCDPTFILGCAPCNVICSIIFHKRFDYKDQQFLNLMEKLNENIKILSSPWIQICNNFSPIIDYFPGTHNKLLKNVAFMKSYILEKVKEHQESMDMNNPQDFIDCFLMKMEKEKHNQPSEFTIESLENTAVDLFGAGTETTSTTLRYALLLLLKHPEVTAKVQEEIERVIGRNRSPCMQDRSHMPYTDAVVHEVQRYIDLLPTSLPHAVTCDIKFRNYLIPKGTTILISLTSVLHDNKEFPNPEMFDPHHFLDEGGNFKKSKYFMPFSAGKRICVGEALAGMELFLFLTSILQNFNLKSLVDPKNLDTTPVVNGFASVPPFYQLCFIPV

[7] = Lipophilicity, logD of the compound at pH 7.4 by LC with tandem MS analysis; assay type: physicochemical; conditions: buffer, read-out: logD
[8] = High throughput solubility of the compound at pH 6.8 after 16 to 24 hrs by MS/MS analysis; assay type: physicochemical; conditions: buffer, time 16-24 hrs
Cytochrome P450 2D6 = Cytochrome P450 2D6 (Homo sapiens, UniProt P10635); experiment: Inhibition of CYP2D6 in human liver microsomes using bufuralol as substrate incubated for 10 mins in presence of NADPH by LC-MS/MS analysis; assay type: ADME, Microsome
Chain of Cytochrome P450 2D6 (P10635 whole entry): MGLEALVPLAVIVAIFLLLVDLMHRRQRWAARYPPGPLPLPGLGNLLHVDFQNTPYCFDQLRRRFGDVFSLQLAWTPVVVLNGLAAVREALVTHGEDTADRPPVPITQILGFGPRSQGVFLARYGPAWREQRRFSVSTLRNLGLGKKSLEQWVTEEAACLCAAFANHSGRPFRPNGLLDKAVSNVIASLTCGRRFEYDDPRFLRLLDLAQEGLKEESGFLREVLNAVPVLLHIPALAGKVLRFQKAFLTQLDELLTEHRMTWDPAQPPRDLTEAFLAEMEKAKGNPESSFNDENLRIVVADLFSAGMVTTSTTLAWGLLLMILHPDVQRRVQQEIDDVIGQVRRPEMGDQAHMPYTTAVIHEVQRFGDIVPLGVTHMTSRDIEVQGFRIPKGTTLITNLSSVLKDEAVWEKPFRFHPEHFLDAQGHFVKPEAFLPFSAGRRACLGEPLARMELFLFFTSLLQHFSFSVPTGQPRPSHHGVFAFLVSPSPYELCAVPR

[9] = Toxicity in Wistar Hannover rat assessed as infiltration of immune cells at 30 to 400 mg/kg/day, po for 15 days by Hematoxylin and eosin staining based microscopic analysis; assay type: organism-based; conditions: in vivo, 360 h, DDE = dose-dependent effect, dose 30-400 mg/kg/day, time 15 day
[10] = Toxicity in Wistar Hannover rat assessed as degeneration of cortical adrenal gland at 30 to 400 mg/kg/day, po for 15 days by Hematoxylin and eosin staining based microscopic analysis; assay type: organism-based; conditions: in vivo, 360 h, DDE = dose-dependent effect, dose 30-400 mg/kg/day, time 15 day
[11] = biological target: T2, Alpha-2C adrenergic receptor (Homo sapiens, UniProt P18825); experiment: Inhibition of alpha2c adrenergic receptor (unknown origin)
T2 sequence (P18825 whole entry): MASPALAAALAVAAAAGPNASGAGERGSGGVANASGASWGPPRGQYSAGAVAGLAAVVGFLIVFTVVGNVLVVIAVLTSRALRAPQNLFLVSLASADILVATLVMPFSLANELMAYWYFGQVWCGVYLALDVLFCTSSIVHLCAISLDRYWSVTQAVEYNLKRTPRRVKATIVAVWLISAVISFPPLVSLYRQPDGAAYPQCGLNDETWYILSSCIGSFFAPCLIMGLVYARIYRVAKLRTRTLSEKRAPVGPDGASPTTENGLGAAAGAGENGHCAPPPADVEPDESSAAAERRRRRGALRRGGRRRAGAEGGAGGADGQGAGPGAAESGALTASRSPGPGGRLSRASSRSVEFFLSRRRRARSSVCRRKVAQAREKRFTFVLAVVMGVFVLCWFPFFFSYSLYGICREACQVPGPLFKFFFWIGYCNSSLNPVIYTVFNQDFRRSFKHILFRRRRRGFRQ

[12] = Oral bioavailability in Sprague-Dawley rat at 2 mg/kg; assay type: ADME, organism-based; conditions: in vivo
[13] = Permeability across apical to basolateral side in human Caco-2 cells at 10 uM incubated for 2 hrs by LC/MS/MS analysis; assay type: ADME, cell-based; conditions: Caco-2, read-out: permeability
[14] = Drug metabolism in human liver hepatocytes assessed as CYP3A4 M3 metabolite formation at 1 uM preincuabted for 5 mins followed by NADPH addition and measured after 20 mins by LC-MS/MS analysis; assay type: ADME, cell-based, Hepatocyte
[15] = Drug metabolism in bile duct cannulated Wistar Han rat assessed as unmodified compound recovery in urine at 3 mg/kg, iv after 8 hrs by LC-MS/MS analysis; assay type: ADME, organism-based; conditions: read-out: Drug metabolism
Cytochrome P450 3A4 = Cytochrome P450 3A4 (Homo sapiens, UniProt P08684); experiment: Inhibition of CYP3A4 in human liver microsomes using midazolam as substrate incubated for 10 mins in presence of NADPH by LC-MS/MS analysis; assay type: ADME, Microsome
Chain of Cytochrome P450 3A4 (P08684 whole entry): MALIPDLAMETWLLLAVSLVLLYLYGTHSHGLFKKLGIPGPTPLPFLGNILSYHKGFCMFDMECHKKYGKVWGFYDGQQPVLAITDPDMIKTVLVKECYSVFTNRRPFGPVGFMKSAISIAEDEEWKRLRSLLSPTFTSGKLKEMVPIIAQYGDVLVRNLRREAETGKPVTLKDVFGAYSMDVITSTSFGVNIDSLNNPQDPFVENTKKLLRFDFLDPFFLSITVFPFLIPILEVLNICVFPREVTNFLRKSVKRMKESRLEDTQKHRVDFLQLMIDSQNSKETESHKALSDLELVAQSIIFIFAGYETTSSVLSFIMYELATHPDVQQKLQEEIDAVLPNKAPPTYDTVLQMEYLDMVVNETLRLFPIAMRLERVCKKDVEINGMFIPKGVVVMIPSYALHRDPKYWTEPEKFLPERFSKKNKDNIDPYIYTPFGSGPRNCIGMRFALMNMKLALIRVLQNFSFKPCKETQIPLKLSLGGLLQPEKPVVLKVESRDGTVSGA

[16] = Toxicity in Wistar Han rat assessed as histological changes in kidney at 30 to 400 mg/kg/day, po for 15 days by Hematoxylin and eosin staining based microscopic analysis; assay type: organism-based; conditions: in vivo, 360 h, dose 30-400 mg/kg/day, time 15 day
[17] = Drug metabolism in bile duct cannulated Wistar Han rat assessed as unmodified compound recovery in bile at 3 mg/kg, iv after 8 hrs by LC-MS/MS analysis; assay type: ADME, organism-based; conditions: read-out: Drug metabolism
[18] = Toxicity in Wistar Han rat assessed as histological changes in lung at 30 to 400 mg/kg/day,po for 15 days by Hematoxylin and eosin staining based microscopic analysis; assay type: organism-based; conditions: in vivo, 360 h, dose 30-400 mg/kg/day, time 15 day
[19] = Dose normalized AUC in Sprague-Dawley rat at 2 mg/kg, po; assay type: ADME, organism-based; conditions: in vivo
[20] = Inhibition of PRC2 (unknown origin) assessed as reduction in H3K27 trimethylation using H3K27Me0 peptide (21 to 44 residues) as substrate by measuring SAH formation by LC-MS analysis; parameters: species or system Homo sapiens
[21] = Drug metabolism in human liver microsomes assessed as CYP3A4 mediated M3 metabolite formation at 1 uM preincuabted for 5 mins followed by NADPH addition and measured after 20 mins by LC-MS/MS analysis; assay type: ADME, Microsome; conditions: 25 min
[22] = Toxicity in Wistar Han rat assessed as histological changes in liver at 30 to 400 mg/kg/day, po for 15 days by Hematoxylin and eosin staining based microscopic analysis; assay type: organism-based; conditions: in vivo, 360 h, dose 30-400 mg/kg/day, time 15 day

For `CS(=O)(=O)c1ccc(-c2cnc(NCc3ccco3)n3cnnc23)cc1`, the Drug metabolism [1] was “Metabolite_Detected”, the GI50 (KARPAS-422) was 0.08 µM and the IC50 [2] was 20 µM. The Drug metabolism [3] was “Metabolite_Detected”, the IC50 [4] was 15 µM and the efflux ratio at 2 h, 10 µM [5] was 7.6. The IC50 (cells) was 0.22 µM, the half-life [6] was 1.6 h and the IC50 (Cytochrome P450 2C9) was > 50 µM. For the same compound, the logD [7] was 1.8, the solubility [8] was 12 µM (≈ 4.43 µg/mL) and the IC50 (Cytochrome P450 2D6) was > 50 µM. For the same compound, the Activity [9] was “Dde”, the Activity [10] was “Dde” and the IC50 [11] was 14 µM. For the same compound, the bioavailability [12] was 62%, the Papp A→B at 2 h, 10 µM [13] was 3 ×10⁻⁶ cm/s and the Drug metabolism [14] was “Metabolite_Detected”. The dose excreted at 8 h [15] was 0.9%, the IC50 (Cytochrome P450 3A4) was > 50 µM and the Activity [16] was “Non-Toxic”. The dose excreted at 8 h [17] was 0.5%, the Activity [18] was “Non-Toxic” and the AUC/dose [19] was 1948 nM·h. For the same compound, the IC50 [20] was 0.022 µM, the Drug metabolism [21] was “Metabolite_Detected” and the Activity [22] was “Non-Toxic”.
